Reference: US10954253B2, “1,2-dihydro-3H-pyrazolo[3,4-d]pyrimidin-3-one derivative as Wee1 inhibitor” (SHIJIAZHUANG SAGACITY NEW DRUG DEVELOPMENT CO., LTD., priority 2017, dated 2021)

Target: Wee1 (Homo sapiens (Human), UniProt P30291)
Assay: In vitro enzymatic inhibitory activity (33P-ATP filter-binding kinase assay, MBP substrate)
Assay type: biochemical
Conditions: Wee-1 150 nM, MBP 20 μM
Experimental: The compounds of the present invention for experimental use were all self-prepared, and their chemical names and structural formulas are shown in the preparation embodiments of the respective compounds. The experimental tests were carried out in Reaction Biology Corporation, USA, and the experimental results were provided by the company. Basic reaction buffer: 20 mM hydroxyethylpiperazine ethanesulfuric acid (pH 7.5), 10 mM magnesium chloride, 1 mM EGTA, 0.02% Brij35, 0.02 mg/mL bovine serum albumin, 0.1 mM Na3VO4, 2 mM DTT, 1% DMSO Enzyme: Wee-1 concentration is 150 nM Matrix: MBP concentration is 20 μM The tested compound was formulated into a 5 mM solution with 100% DMSO, and a 10 points 3-fold gradient dilution was performed with DMSO through an automated pipetting station epMotion 5070. 1. Fresh matrix configuration reaction buffer was prepared; 2. The Wee-1 was added into the matrix solution and shaked gently; 3. DMSO solution of the compound were added into the kinase reaction mixture using an acoustic technique (Echo 550; nanoliter range) and incubated for 20 minutes at room temperature; 4. ^33P-ATP (specific activity, 10 μCi/μL) was added into the reaction mixture to stimulate the reaction; 5. Incubated for 2 hours at room temperature; 6. Kinase activity was detected by filter-binding method.

Sequence of Wee1 (P30291 whole entry): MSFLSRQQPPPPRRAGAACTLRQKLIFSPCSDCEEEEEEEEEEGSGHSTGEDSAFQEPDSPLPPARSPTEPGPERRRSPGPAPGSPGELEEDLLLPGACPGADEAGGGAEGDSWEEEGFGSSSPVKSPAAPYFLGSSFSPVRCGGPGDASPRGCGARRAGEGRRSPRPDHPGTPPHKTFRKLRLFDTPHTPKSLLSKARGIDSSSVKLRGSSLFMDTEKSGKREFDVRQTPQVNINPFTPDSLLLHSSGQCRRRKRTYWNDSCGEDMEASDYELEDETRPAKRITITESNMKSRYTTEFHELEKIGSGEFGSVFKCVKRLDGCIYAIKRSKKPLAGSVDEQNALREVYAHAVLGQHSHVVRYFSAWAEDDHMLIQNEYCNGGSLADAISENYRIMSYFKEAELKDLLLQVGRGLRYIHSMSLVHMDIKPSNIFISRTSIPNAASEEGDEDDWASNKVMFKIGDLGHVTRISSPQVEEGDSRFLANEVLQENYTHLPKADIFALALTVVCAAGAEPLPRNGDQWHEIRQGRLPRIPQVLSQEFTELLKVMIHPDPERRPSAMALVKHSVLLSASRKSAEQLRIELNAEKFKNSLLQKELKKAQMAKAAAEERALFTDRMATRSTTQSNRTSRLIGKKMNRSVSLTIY

Row | SMILES | IC50 [nM]
1 | C=CCn1c(=O)c2cnc(Nc3ccc(N4CCC5(CCN(CC#N)CC5)CC4)cc3)nc2n1-c1cccc(C(C)(C)O)n1 [Compound 63, 2-(9-(4((2-allyl-1(6-(2-hydroxypropan-2-yl)pyridin-2-yl)-3-oxo-2,3-dihydro-1H-pyrazolo[3,4-d]pyrimidin-6-yl)amino)phenyl)-3,9-diazaspiro[5.5]undecan-3-yl)acetonitrile] | 8.3
2 | C=CCn1c(=O)c2cnc(Nc3ccc(N4CCC5(CCN(CCOC)CC5)CC4)cc3)nc2n1-c1cccc(C(C)(C)O)n1 [Compound 64, 2-allyl-1-(6-(2-hydroxypropan-2-yl)pyridin-2-yl)-6-((4-(9-(2-methoxylethyl)-3,9-diazaspiro[5.5]undecan-3-yl)phenyl)amino)-1H-pyrazolo[3,4-d]pyrimidin-3(2H)-one] | 9.9
3 | C=CCn1c(=O)c2cnc(Nc3ccc(N4CCC5(CCN(C)CC5)CC4)cc3)nc2n1-c1cccc(C2(F)CC(F)(F)C2)n1 [Compound 65, 2-allyl-6((4-(9-methyl-3,9-diazaspiro[5.5]undecan-3-yl)phenyl)amino)-1-(6-(1,3,3-trifluorocyclobutyl)pyridin-2-yl)-1H-pyrazolo[3,4-d]pyrimidin-3(2H)-one] | 41.6
4 | C=CCn1c(=O)c2cnc(Nc3ccc(N4CCC5(CCN(C)CC5)CC4)cc3)nc2n1-c1cccc(C2(O)CC(F)(F)C2)n1 [Compound 66, 2-allyl-1-(6-(3,3-difluoro-1-hydroxycyclobutyl)pyridin-2-yl)-6-((4-(9-methyl-3,9-diazaspiro[5.5]undecan-3-yl)phenyl)amino)-1H-pyrazolo[3,4-d]pyrimidin-3(2H)-one] | 15
5 | C=CCn1c(=O)c2cnc(Nc3ccc(N4CCC5(CCN(C)CC5)CC4)cc3)nc2n1-c1cccc(C(C)C)n1 [Compound 67] | 12.8
6 | C=CCn1c(=O)c2cnc(Nc3ccc(N4CCC5(CCN(C)CC5)CC4)cc3)nc2n1-c1cccc(C2(C)CC2)n1 [Compound 68, 2-allyl-6-((4-(9-methyl-3,9-diazaspiro[5.5]undecan-3-yl)phenyl)amino)-1-(6-(1-methylcyclopropyl)pyridin-2-yl)-1H-pyrazolo[3,4-d]pyrimidin-3(2H)-one] | 30.4
7 | C=CCn1c(=O)c2cnc(Nc3ccc(N4CCC5(CC4)CCN(C4COC4)CC5)cc3)nc2n1-c1cccc(C(C)(C)O)n1 [Compound 69] | 5.7
8 | C=CCn1c(=O)c2cnc(Nc3ccc(N4CCC5(CCN(C(=O)OC)CC5)CC4)cc3)nc2n1-c1cccc(C(=O)N(C)C)n1 [Compound 70, methyl-9-(4-((2-allyl-1-(6-(dimethylaminoformyl)pyridin-2-yl)-3-oxo-2,3-dihydro-1H-pyrazolo[3,4-d]pyrimidin-6-yl)amino)phenyl)-3,9-diazaspiro[5.5]undecan-3-carboxylate] | 20.3
9 | C=CCn1c(=O)c2cnc(Nc3ccc(N4CCC5(CCN(C(=O)OC)CC5)CC4)cc3)nc2n1-c1cccc(C2(O)COC2)n1 [Compound 71, methyl-9-(4-((2-allyl-1-(6-(3-hydroxyoxetan-3-yl)pyridin-2-yl)-3-oxo-2,3-dihydro-1H-pyrazolo[3,4-d]pyrimidin-6-yl)amino)phenyl)-3,9-diazaspiro[5.5]undecan-3-carboxylate] | 15.7
10 | C=CCn1c(=O)c2cnc(Nc3ccc(N4CCC5(CCN(C)CC5)CC4)cc3)nc2n1-c1cccc(N2CC(F)(F)C2)n1 [Compound 72] | 8.2
11 | C=CCn1c(=O)c2cnc(Nc3ccc(N4CCC5(CCN(C)CC5)CC4)cc3)nc2n1-c1cccc(C2(OC)COC2)n1 [Compound 73, 2-allyl-1-(6-(3-methoxyoxetan-3-yl)pyridin-2-yl)-6-((4-(9-methyl-3,9-diazaspiro[5.5]undecan-3-yl)phenyl)amino)-1H-pyrazolo[3,4-d]pyrimidin-3(2H)-one] | 5.3
12 | C=CCn1c(=O)c2cnc(Nc3ccc(N4CCC5(CCN(C)CC5)CC4)cc3)nc2n1-c1cccc([C@@](C)(O)C(F)(F)F)n1 [Compound 74, (R)-2-allyl-6-((4-(9-methyl-3,9-diazaspiro[5.5]undecan-3-yl)phenyl)amino)-1-(6-(1,1,1-trifluoro-2-hydroxypropan-2-yl)pyridin-2-yl)-1H-pyrazolo[3,4-d]pyrimidin-3(2H)-one] | 13
13 | C=CCn1c(=O)c2cnc(Nc3ccc(N4CCC5(CCN(C)CC5)CC4)cc3)nc2n1-c1cccc([C@](C)(O)C(F)(F)F)n1 [Compound 75, (S)-2-allyl-6-((4-(9-methyl-3,9-diazaspiro[5.5]undecan-3-yl)phenyl)amino)-1-(6-(1,1,1-trifluoro-2-hydroxypropan-2-yl)pyridin-2-yl)-1H-pyrazolo[3,4-d]pyrimidin-3(2H)-one] | 17
14 | C=CCn1c(=O)c2cnc(Nc3ccc(N4CCC5(CCNCC5)CC4)cc3)nc2n1-c1cccc(C(C)(C)O)n1 [Compound 76, 6-((4-(-3,9-diazaspiro[5.5]undecan-3-yl)phenyl)amino)-2-allyl-1-(6-(2-hydroxypropan-2-yl)pyridin-2-yl)-1H-pyrazolo[3,4-d]pyrimidin-3(2H)-one] | 13
15 | C=CCn1c(=O)c2cnc(Nc3ccc(N4CCC5(CCNCC5)CC4)cc3)nc2n1-c1cccc(C2(F)COC2)n1 [Compound 77, 6-((4-(-3,9-diazaspiro[5.5]undecan-3-yl)phenyl)amino)-2-allyl-1-(6-(3-fluoro-oxetan-3-yl)pyridin-2-yl)-1H-pyrazolo[3,4-d]pyrimidin-3(2H)-one] | 9
16 | C=CCn1c(=O)c2cnc(Nc3ccc(N4CCC5(CCN(C)CC5)CC4)cc3)nc2n1-c1cccc(C(C)(O)C(F)F)n1 (stereo not drawn) [Compound 78] | 32
17 | C=C(F)Cn1c(=O)c2cnc(Nc3ccc(N4CCC5(CCN(C)CC5)CC4)cc3)nc2n1-c1cccc(C(C)(C)O)n1 [Compound 79, 2-(2-fluoroallyl)-1-(6-(2-hydroxypropan-2-yl)pyridin-2-yl)-6-((4-(9-methyl-3,9-diazaspiro[5.5]undecan-3-yl)phenyl)amino)-1H-pyrazolo[3,4-d]pyrimidin-3(2H)-one] | 43
18 | C=CCn1c(=O)c2cnc(Nc3ccc(N4CCC5(CCN(C)CC5)CC4)cc3)nc2n1-c1ccc(F)c(C(C)(C)O)n1 [Compound 80, 2-allyl-1-(5-fluoro-6-(2-hydroxypropan-2-yl)pyridin-2-yl)-6-((4-(9-methyl-3,9-diazaspiro[5.5]undecan-3-yl)phenyl)amino)-1H-pyrazolo[3,4-d]pyrimidin-3(2H)-one] | 49
19 | C=CCn1c(=O)c2cnc(Nc3ccc(N4CCC5(CCN(C)CC5)CC4)cc3)nc2n1-c1ccccc1 [Embodiment 1, 2-allyl-6-((4-(9-methyl-3,9-diazaspiro[5.5]undecan-3-yl)phenyl)amino)-1-phenyl-1H-pyrazolo[3,4-d]pyrimidin-3(2H)-one] | 67.4
20 | C=CCn1c(=O)c2cnc(Nc3ccc(N4CCC5(CCNCC5)CC4)cc3)nc2n1-c1ccccc1 [Embodiment 2, 6-((4-(3,9-diazaspiro[5.5]undecan-3-yl)phenyl)amino)-2-allyl-1-phenyl-1H-pyrazolo[3,4-d]pyrimidin-3(2H)-one] | 43.6
21 | C=CCn1c(=O)c2cnc(Nc3ccc(N4CCC5(CCN(C)CC5)CC4)cc3)nc2n1-c1ccccn1 [Embodiment 3, 2-allyl-6-((4-(9-methyl-3,9-diazaspiro[5.5]undecan-3-yl)phenyl)amino)-1-(pyridin-2-yl)-1H-pyrazolo[3,4-d]pyrimidin-3(2H)-one] | 24.6
